Experimental data as given in US9630955B2, “Chemical compound useful as intermediate for preparing a catechol-O-methyltransferase inhibitor” (BIAL—Portela & Cª., S.A, priority 2011, dated 2017).
Where two headings read alike, the source gives them in different places.

Experiments:
liver COMT = biological target: T1, liver COMT (Rattus norvegicus, UniProt P22734); test: inhibition of liver COMT post oral administration to rats; assay type: in vivo; conditions: for ED50: rat, po
T1 construct: from tissue; host or cells: rat liver
T1 sequence (P22734 1-264): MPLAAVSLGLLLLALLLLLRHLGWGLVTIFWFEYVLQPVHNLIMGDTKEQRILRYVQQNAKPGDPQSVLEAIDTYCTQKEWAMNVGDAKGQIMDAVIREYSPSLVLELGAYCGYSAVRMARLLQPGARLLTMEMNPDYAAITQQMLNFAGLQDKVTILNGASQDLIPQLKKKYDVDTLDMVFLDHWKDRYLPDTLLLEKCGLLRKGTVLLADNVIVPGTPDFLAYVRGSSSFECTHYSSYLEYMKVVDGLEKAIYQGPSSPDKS

human recombinant S-COMT = biological target: T2, human recombinant S-COMT (Homo sapiens, UniProt P21964)
T2 sequence (P21964 1-221 isoform P21964-2): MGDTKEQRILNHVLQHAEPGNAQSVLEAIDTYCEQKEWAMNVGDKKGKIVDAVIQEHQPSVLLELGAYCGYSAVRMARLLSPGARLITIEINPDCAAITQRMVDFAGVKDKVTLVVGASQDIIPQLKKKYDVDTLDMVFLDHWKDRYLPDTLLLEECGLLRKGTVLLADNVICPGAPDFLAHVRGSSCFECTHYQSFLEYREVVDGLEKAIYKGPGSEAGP

COMT in the brain = biological target: T3, COMT in the brain (Rattus norvegicus, UniProt P22734); test: inhibition of COMT in the brain following oral administration to the rat; assay type: in vivo; conditions: over a period of 8 hours post administration
T3 construct: from tissue; host or cells: rat brain
T3 sequence (P22734 1-264): T1 sequence (P22734 1-264)

SMILES: Cc1ccc(C(=O)c2cc(O)c(O)c([N+](=O)[O-])c2)cc1 [tolcapone]
- enzyme activity recovery (rat liver COMT) (liver COMT; oral administration, after 9 hours): about 84%
- ED50 (liver COMT; read-out: ED50 inhibiting liver COMT, rats, oral administration, at 3 hours post administration): 1.28 mg/kg
- ED50 (liver COMT; read-out: ED50 inhibiting liver COMT, rats, oral administration, at 6 hours post administration): 2.08 mg/kg
- inhibition of human recombinant S-COMT (in words) (human recombinant S-COMT): inhibit
- enzyme activity inhibited (COMT in the brain) (COMT in the brain): about 50%
